Measurements taken from the supplement of paper PMC13380429.

Experiments:
Conditions in all cases: 72 h
[1] = test system: U2OS; experiment: cell viability relative to DMSO; higher = less toxic
[2] = test system: HepG2; experiment: as above
[3] = test system: Calu-3; experiment: as above
[4] = test system: Vero E6; experiment: as above
[5] = test system: Caco-2; experiment: as above
[6] = test system: U2OS; experiment: relative viability EC50 (midpoint between 100% and the lowest measured viability); higher = less toxic
[7] = test system: HepG2; experiment: as above
[8] = test system: Calu-3; experiment: as above
[9] = test system: Vero E6; experiment: as above
[10] = test system: Caco-2; experiment: as above
[11] = test system: U2OS; experiment: drug sensitivity score (DSS) for viability; higher = more toxic; extreme values may be limits of the assay
[12] = test system: HepG2; experiment: as above
[13] = test system: Calu-3; experiment: as above
[14] = test system: Vero E6; experiment: as above
[15] = test system: Caco-2; experiment: as above

SMILES | cell viability ([1]; 1 nM) | cell viability ([1]; 10 nM) | cell viability ([1]; 100 nM) | cell viability ([1]; 1000 nM) | cell viability ([1]; 10000 nM) | cell viability ([2]; 1 nM) | cell viability ([2]; 10 nM) | cell viability ([2]; 100 nM) | cell viability ([2]; 1000 nM) | cell viability ([2]; 10000 nM) | cell viability ([3]; 1 nM) | cell viability ([3]; 10 nM) | cell viability ([3]; 100 nM) | cell viability ([3]; 1000 nM) | cell viability ([3]; 10000 nM) | cell viability ([4]; 1 nM) | cell viability ([4]; 10 nM) | cell viability ([4]; 100 nM) | cell viability ([4]; 1000 nM) | cell viability ([4]; 10000 nM) | cell viability ([5]; 1 nM) | cell viability ([5]; 10 nM) | cell viability ([5]; 100 nM) | cell viability ([5]; 1000 nM) | cell viability ([5]; 10000 nM) | relative viability EC50 [6] | relative viability EC50 [7] | relative viability EC50 [8] | relative viability EC50 [9] | relative viability EC50 [10] | drug sensitivity score [11] | drug sensitivity score [12] | drug sensitivity score [13] | drug sensitivity score [14] | drug sensitivity score [15]
CN(C)CC/C=C1/c2ccccc2COc2ccccc21 [doxepin] | 94.9% | 101% | 98.7% | 102% | 103% | 103% | 85.4% | 115% | 97.4% | 99.3% | 89% | 101% | 97.9% | 97.7% | 89.9% | 100% | 96.8% | 96.7% | 91.1% | 106% | 90.4% | 100% | 97.4% | 102% | 99.6% | > 10 µM | > 10 µM | > 10 µM | > 10 µM | > 10 µM | 0 | 0 | 0 | 0 | 0
Cc1oc(-c2ccccc2)nc1CCOc1ccc(CC2SC(=O)NC2=O)c2sccc12 (stereo not given) [edaglitazone] | 99.4% | 93% | 99.2% | 97.4% | 96.9% | 102% | 107% | 93.6% | 100% | 88.8% | 106% | 102% | 114% | 97.5% | 102% | 103% | 102% | 89.4% | 83.7% | 86.7% | 104% | 98.6% | 90.4% | 96.1% | 87.2% | > 10 µM | > 10 µM | > 10 µM | > 10 µM | > 10 µM | 0 | 0 | 0 | 2.6 | 0.1
CCc1nc(C)ccc1O [emoxipin] | 102% | 101% | 106% | 97% | 103% | 110% | 108% | 97.4% | 99.6% | 108% | 105% | 111% | 104% | 96.8% | 105% | 98.1% | 102% | 97.3% | 92.7% | 93.2% | 95.1% | 99.6% | 98.1% | 98.6% | 90.9% | > 10 µM | > 10 µM | > 10 µM | > 10 µM | > 10 µM | 0 | 0 | 0 | 0 | 0
CCOC(=O)CCC(=O)O[C@H]1[C@H](O[C@@H]2[C@@H](C)[C@H](O[C@H]3C[C@@](C)(OC)[C@@H](O)[C@H](C)O3)[C@@H](C)C(=O)O[C@H](CC)[C@@](C)(O)[C@H](O)[C@@H](C)C(=O)[C@H](C)C[C@@]2(C)O)O[C@H](C)C[C@@H]1N(C)C [erythromycin-ethylsuccinate] | 102% | 103% | 96.8% | 106% | 100% | 97.8% | 107% | 101% | 87.5% | 101% | 101% | 98.5% | 100% | 101% | 96.3% | 112% | 94.8% | 103% | 100% | 104% | 87.7% | 114% | 85.5% | 100% | 99.5% | > 10 µM | > 10 µM | > 10 µM | > 10 µM | > 10 µM | 0 | 0 | 0 | 0 | 0
O=C(CN1CCNCC1)NC1CCCCC1 [esaprazole] | 99% | 100% | 102% | 100% | 108% | 104% | 99.5% | 100% | 102% | 90.1% | 98.3% | 98% | 101% | 104% | 97.1% | 103% | 107% | 99.1% | 107% | 98.5% | 105% | 92.2% | 105% | 98.5% | 98.6% | > 10 µM | > 10 µM | > 10 µM | > 10 µM | > 10 µM | 0 | 0 | 0 | 0 | 0
